Earlier results in patent US10585101B2, “Prostatic liquid biopsy for the detection of prostate cancer and benign prostatic hyperplasia” (WAVESENSE, INC., priority 2016, dated 2020).

Tested on: prostate cancer
Details: long term use

For `CC(C)(C)NC(=O)[C@H]1CC[C@H]2[C@@H]3CC[C@H]4NC(=O)C=C[C@]4(C)[C@H]3CC[C@]12C` [finasteride, Finasteride], the “risk of low-grade prostate cancer” value is given as “decreased the risk of low-grade prostate cancer”.
